This passage reports EC50 results from patent publication US10941152B2, “Pyrazole compounds as modulators of FSHR and uses thereof” (TOCOPHERX, INC., priority 2014, dated 2021).

Molecules are shown by their SMILES. pEC50: −log10 of the molar value. A value given as a limit tells only on which side of the number the result lay.

The target of the first experiment is T1, follicle-stimulating hormone (FSH) receptor (Rattus norvegicus, UniProt P20395).
T1 construct: endogenous in cells; host or cells: rat granulosa cells
T1 sequence (P20395 18-692): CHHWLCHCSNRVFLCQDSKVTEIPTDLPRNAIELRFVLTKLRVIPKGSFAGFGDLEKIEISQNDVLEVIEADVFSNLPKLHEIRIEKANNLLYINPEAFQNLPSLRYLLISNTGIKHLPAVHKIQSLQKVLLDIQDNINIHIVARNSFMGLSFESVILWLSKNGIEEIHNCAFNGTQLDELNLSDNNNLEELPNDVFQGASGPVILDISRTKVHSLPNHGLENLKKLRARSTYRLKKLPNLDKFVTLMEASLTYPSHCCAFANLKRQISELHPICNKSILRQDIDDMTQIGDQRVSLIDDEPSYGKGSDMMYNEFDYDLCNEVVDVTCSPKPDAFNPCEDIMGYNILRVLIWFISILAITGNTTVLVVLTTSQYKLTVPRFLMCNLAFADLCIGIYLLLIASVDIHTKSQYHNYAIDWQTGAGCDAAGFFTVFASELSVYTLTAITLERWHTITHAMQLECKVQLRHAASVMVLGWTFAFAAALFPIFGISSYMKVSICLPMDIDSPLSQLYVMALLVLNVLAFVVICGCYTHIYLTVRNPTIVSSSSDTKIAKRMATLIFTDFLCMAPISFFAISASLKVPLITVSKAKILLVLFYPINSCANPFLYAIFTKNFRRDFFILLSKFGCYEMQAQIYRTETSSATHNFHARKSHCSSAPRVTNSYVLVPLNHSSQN
In words: Rat granulosa EC50 FSH (Assay B). Type of experiment: cell-based.
Conditions: not given
As for the experimental part:
Example 25. Rat granulosa EC50 FSH (Assay B)
The assay was performed pursuant to the teaching of Yanofsky et al. (2006) Allosteric activation of the follicle-stimulating hormone (FSH) receptor by selective, nonpeptide agonists (JBC 281(19): 13226-13233, which is incorporated by reference in the disclosure of the invention).
As a reminder, the pEC50 is the EC50 on a negative log10 scale, so that one unit is a factor of ten. As for `COc1cc2c(cc1C1C=NN=C1C)-c1c(c(C(=O)N(C)C(C)(C)C)nn1-c1cc(Cl)cc(Cl)c1)CO2` (centres unmarked) [Compound 141], the pEC50 was 7.00 to 8.00.

`COc1cc2c(cc1-c1cnccc1C(N)=O)-c1c(c(C(=O)N(C)C(C)(C)C)nn1-c1cc(Cl)cc(Cl)c1)CO2` [Compound 153]: the pEC50 is 7.00 to 8.00.

The target in another experiment is T2, FSHR (Homo sapiens, UniProt P23945).
T2 construct: expressed in transfected cells; host or cells: CHO (Cho-FSHR-LUC-1-1-43)
T2 sequence (P23945 18-695): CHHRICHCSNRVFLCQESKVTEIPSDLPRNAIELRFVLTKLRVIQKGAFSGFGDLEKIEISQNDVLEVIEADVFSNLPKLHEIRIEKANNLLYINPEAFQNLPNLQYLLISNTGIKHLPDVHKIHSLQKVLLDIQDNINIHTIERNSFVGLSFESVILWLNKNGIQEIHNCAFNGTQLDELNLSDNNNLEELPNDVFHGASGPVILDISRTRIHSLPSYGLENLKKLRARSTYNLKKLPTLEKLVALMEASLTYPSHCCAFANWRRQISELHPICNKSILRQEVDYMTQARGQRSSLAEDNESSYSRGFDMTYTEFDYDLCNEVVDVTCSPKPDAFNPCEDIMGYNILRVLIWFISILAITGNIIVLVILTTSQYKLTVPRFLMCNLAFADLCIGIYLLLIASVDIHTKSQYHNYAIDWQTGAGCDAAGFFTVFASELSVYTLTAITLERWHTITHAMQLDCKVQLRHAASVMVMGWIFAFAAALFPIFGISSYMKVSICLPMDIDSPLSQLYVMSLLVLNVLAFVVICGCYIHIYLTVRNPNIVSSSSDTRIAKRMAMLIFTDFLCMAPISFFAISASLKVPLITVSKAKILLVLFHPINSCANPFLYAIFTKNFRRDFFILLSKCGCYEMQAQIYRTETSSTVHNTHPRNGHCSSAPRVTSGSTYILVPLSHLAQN
In words: EC50 of cyclic AMP production in CHO FSHR cells + EC20 FSH (Assay A). The class given is cell-based. As to conditions: cyclic AMP production in CHO FSHR cells + EC20 FSH (0.265 pM), HTRF. As for the experimental part:
Example 24. EC50 of cyclic AMP production in CHO FSHR cells+EC20 FSH (Assay A)
2500 Cho-FSHR-LUC-1-1-43 cells were plated per well in 5 al of phenol red free DMEM/F12+1% FBS. Cells were plated in 384 well, solid white low volume plates (Greiner 784075) by Multidrop. Cells were assayed by adding 100 al of 2×EC20 FSH/IBMX in DMEM/F12+0.1% BSA) by Multidrop to 2 al of test compound stamped in 384 well plates (compounds are diluted 1:50). The final FSH concentration was 0.265 pM, and the final IBMX concentration was 200 μM. The compound plate map was as follows: Column 1: 2 μl of DMSO; Column 2: 2 μl of DMSO; Columns 3-12 and 13-24: 2 μl of test compound, diluted 1:4 in 100% DMSO, or 2 μl of FSH, diluted 1:4 in DMEM/F12+0.1% BSA. The starting concentration for FSH was 50 nM (final concentration was 0.5 nM). Furthermore, Column 23 contained 2 μl of EC100 FSH reference (100×) (diluted in DMEM/F12+0.1% BSA) at a final concentration of 0.5 nM, and Column 24 contained 2 μl of 1 mM AS707664/2 reference compound 2. 5 μl of compound+EC20 FSH mixture were transferred to cell plates (1:2 dilution into 5 μl of cell media) The plates were incubated at 37° C. for 1 h. 10 μl of mixed HTRF (CisBio #62AM4PEC) reagents were added per well and incubated at room temperature for 1 h. The plates were read on Envision using the cAMP HTRF—low volume 384 well protocol. The readout was the calculated fluorescence ratio (665 nm/620 nm). Values given in percent (%) indicate the percental effect (response) at a certain concentration of agonist relative to the maximum response of the FSH standard.
As for `COc1cc2c(cc1C1C=NN=C1C)-c1c(c(C(=O)N(C)C(C)(C)C)nn1-c1cc(Cl)cc(Cl)c1)CO2` (centres unmarked) [Compound 141], the pEC50 was more than 8.00.

For `COc1cc2c(cc1-c1cnccc1C(N)=O)-c1c(c(C(=O)N(C)C(C)(C)C)nn1-c1cc(Cl)cc(Cl)c1)CO2` [Compound 153], the pEC50 was more than 8.00.

For the compound `COc1cc2c(cc1-c1ccc(F)c(C(=O)O)c1)-c1c(c(C(=O)N(C)C(C)(C)C)nn1-c1cc(Cl)cc(Cl)c1)CO2` [Compound 180], the pEC50 was 7.00 to 8.00.

Take `COc1cc2c(cc1CC(C)C)-c1c(c(C(=O)N(C)C(C)(C)C#N)nn1-c1ccsc1)CO2` [Compound 133, N-(2-cyanopropan-2-yl)-8-isobutyl-7-methoxy-N-methyl-1-(thiophen-3-yl)-1,4-dihydrochromeno[4,3-c]pyrazole-3-carboxamide]: the pEC50 is more than 8.00.

On to `COc1cc2c(cc1-c1cnoc1C)-c1c(c(C(=O)N(C)C(C)(C)C)nn1-c1cc(Cl)cc(Cl)c1)CO2` [Compound 15, N-tert-butyl-1-(3,5-dichlorophenyl)-7-methoxy-N-methyl-8-(5-methylisoxazol-4-yl)-1,4-dihydrochromeno[4,3-c]pyrazole-3-carboxamide], for which the negative-log EC50 (pEC50) was more than 8.00.

As to `CCC1(COC)CCCN1C(=O)c1nn(-c2ccsc2)c2c1COc1cc(OC)c(-c3ccn(C)n3)cc1-2` (centres unmarked) [Compound 128, (2-ethyl-2-(methoxymethyl)pyrrolidin-1-yl)(7-methoxy-8-(1-methyl-1H-pyrazol-3-yl)-1-(thiophen-3-yl)-1,4-dihydrochromeno[4,3-c]pyrazol-3-yl)methanone], the pEC50 is 7.00 to 8.00.

As for `COc1cc(OC)cc(-n2nc(C(=O)N(CCO)C(C)(C)C)c3c2-c2cc(-c4ccn(C)n4)c(OC)cc2OC3)c1` [Compound 124, N-tert-butyl-1-(3,5-dimethoxyphenyl)-N-(2-hydroxyethyl)-7-methoxy-8-(1-methyl-1H-pyrazol-3-yl)-1,4-dihydrochromeno[4,3-c]pyrazole-3-carboxamide], the pEC50 was 7.00 to 8.00.

As to `COc1cc(OC)cc(-n2nc(C(=O)N(C)C(C)(C)C)c3c2-c2cc(-c4nn(C)cc4C(N)=O)c(OC)cc2OC3)c1` [Compound 144, N-tert-butyl-8-(4-carbamoyl-1-methyl-1H-pyrazol-3-yl)-1-(3,5-dimethoxyphenyl)-7-methoxy-N-methyl-1,4-dihydrochromeno[4,3-c]pyrazole-3-carboxamide], the pEC50 was less than 6.30.

As to `COc1cc2c(cc1-c1ccn(C)n1)-c1c(c(C(=O)N3CCS(=O)(=O)CC3(C)C)nn1-c1cc(Cl)cc(Cl)c1)CO2` [Compound 13, 4-{[1-(3,5-dichlorophenyl)-7-methoxy-8-(1-methyl-1H-pyrazol-3-yl)-1H,4H-chromeno[4,3-c]pyrazol-3-yl]carbonyl}-3,3-dimethyl-1l{6},4-thiomorpholine-1,1-dione], the pEC50 is 7.00 to 8.00.

Regarding `COc1cc2c(cc1-c1ccn(C)n1)-c1c(c(C(=O)N3CCC(S(C)(=O)=O)CC3(C)C)nn1-c1ccsc1)CO2` (centres unmarked) [Compound 129, (2,2-dimethyl-4-(methylsulfonyl)piperidin-1-yl)(7-methoxy-8-(1-methyl-1H-pyrazol-3-yl)-1-(thiophen-3-yl)-1,4-dihydrochromeno[4,3-c]pyrazol-3-yl)methanone], the pEC50 was 7.00 to 8.00.

For the compound `COc1cc2c(cc1-c1cnn(CC(O)CO)c1)-c1c(c(C(=O)N(C)C(C)(C)C)nn1-c1cc(Cl)cc(Cl)c1)CO2` (single isomer, unassigned) [Compound 192, N-tert-butyl-1-(3,5-dichlorophenyl)-8-(1-(2,3-dihydroxypropyl)-1H-pyrazol-4-yl)-7-methoxy-N-methyl-1,4-dihydrochromeno[4,3-c]pyrazole-3-carboxamide], the pEC50 was 6.30 to 7.00.

Turning to `COc1cc(OC)cc(-n2nc(C(=O)N3CC[S+]([O-])CC3(C)C)c3c2-c2cc(-c4cncc(C)c4)c(OC)cc2OC3)c1` (centres unmarked) [Compound 45, (1-(3,5-dimethoxyphenyl)-7-methoxy-8-(5-methylpyridin-3-yl)-1,4-dihydrochromeno[4,3-c]pyrazol-3-yl)(S-oxo-3,3-dimethylthiomorpholino)methanone], the pEC50 was more than 8.00.

Take `COc1cc2c(cc1-c1ccn(C)n1)-c1c(c(C(=O)N3CCCC3(CO)CC(C)C)nn1-c1ccsc1)CO2` (centres unmarked) [Compound 126, (2-(hydroxymethyl)-2-isobutylpyrrolidin-1-yl)(7-methoxy-8-(1-methyl-1H-pyrazol-3-yl)-1-(thiophen-3-yl)-1,4-dihydrochromeno[4,3-c]pyrazole-3-yl)methanone]: the pEC50 was 7.00 to 8.00.

For the compound `COc1cc(OC)cc(-n2nc(C(=O)N3CCOCC3(C)C)c3c2-c2cc(-c4ccccn4)c(OC)cc2OC3)c1` [Compound 47, (1-(3,5-dimethoxyphenyl)-7-methoxy-8-(pyridin-2-yl)-1,4-dihydrochromeno[4,3-c]pyrazol-3-yl)(3,3-dimethylmorpholino)methanone], the pEC50 is 7.00 to 8.00.

As to `COc1cc2c(cc1C#CC(N)=O)-c1c(c(C(=O)N(C)C(C)(C)C)nn1-c1ccsc1)CO2` [Compound 186, 8-(3-amino-3-oxoprop-1-ynyl)-N-tert-butyl-7-methoxy-N-methyl-1-(thiophen-3-yl)-1,4-dihydrochromeno[4,3-c]pyrazole-3-carboxamide], the pEC50 is 7.00 to 8.00.

For `COc1cc(Cl)cc(-n2nc(C(=O)N(C)C(C)(C)C)c3c2-c2cc(-c4cncc(C#N)c4)c(OC)cc2OC3)c1` [Compound 35, N-tert-butyl-1-(3-chloro-5-methoxyphenyl)-8-(5-cyanopyridin-3-yl)-7-methoxy-N-methyl-1,4-dihydrochromeno[4,3-c]pyrazole-3-carboxamide], the pEC50 is more than 8.00.

Take `COc1cc2c(cc1-c1ccccn1)-c1c(c(C(=O)N3CCOCC3(C)C)nn1-c1cc(Cl)cc(Cl)c1)CO2` [Compound 11, (1-(3,5-dichlorophenyl)-7-methoxy-8-(pyridin-2-yl)-1,4-dihydrochromeno[4,3-c]pyrazol-3-yl)(3,3-dimethylmorpholino)methanone]: the pEC50 was more than 8.00.

Turning to `COc1cc2c(cc1[C@H]1C[C@@H]1C(=O)O)-c1c(c(C(=O)N(C)C(C)(C)C)nn1-c1cc(F)cc(F)c1)CO2` (racemic) [Compound 205], the pEC50 is 7.00 to 8.00.
